Results on 27 compounds are retold here after the RepoRT retention time repository.

The data set can be described thus: Waters ACQUITY UPLC BEH C18, 100 × 2.1 mm, 1.7 µm, 40 °C, 0.3 to 0.4 mL/min, estimated dead time 0.63 min; A: water + 0.1% formic acid; B: methanol + 0.1% formic acid; gradient (min/%B) 0/0.5 0.1/0.5 10/80 10.1/99.5 12/99.5. Particulars: stereoisomer not certain.

For the compound `CC1OC(OC2C(OC3C(OC4CCC5(C)C(CCC6(C)C5CC=C5C7CC(C)(C)CC(=O)C7(C)CCC56C)C4(C)CO)OC(C(=O)O)C(O)C3O)OCC(O)C2O)C(O)C(O)C1O` (configuration not stated), the LC retention time is 7.85 min.

For the compound `CC(C)=CCCC(C)(O)C1CCC2(C)C1C(O)CC1C3(C)CCC(OC4OC(CO)C(O)C(O)C4O)C(C)(C)C3CCC12C` (configuration not stated), the LC retention time is 9.84 min.

Regarding `CC1OC(OC2C(c3c(O)cc4oc(-c5ccc(O)c(O)c5)cc(=O)c4c3O)OC(CO)C(O)C2O)C(O)C(O)C1O` (configuration not stated), the LC retention time was 4.48 min.

For the compound `COc1c2c(cc3c(-c4ccc5c(c4)OCO5)c4c(cc13)C(=O)OC4)OCO2`, the LC retention time is 8.93 min.

Take `CCC1=NC2CC3(C(=O)N(OC)c4ccccc43)C3CC1C2CO3` (configuration not stated): the LC retention time was 3.99 min.

For `COc1cc(C=CC(=O)OC2C(OC3C(Oc4cc(O)c5c(=O)cc(-c6ccc(O)c(OC)c6)oc5c4)OC(C(=O)O)C(O)C3O)OC(C(=O)O)C(O)C2O)ccc1O` (configuration not stated), the LC retention time is 4.68 min.

Take `c1ccc2c(c1)CN1CCCC1=N2`: the LC retention time is 2.8 min.

Take `COc1cc2c(cc1OC)C(C)=NCC2`: the LC retention time was 2.93 min.

As to `CC(=O)OC1C(C)CNC2C(C)C3C(CC4C5CCC6CC(OC7OC(CO)C(OC8OC(CO)C(O)C(OC9OCC(O)C(O)C9O)C8OC8OC(CO)C(O)C(O)C8O)C(O)C7O)CCC6(C)C5CCC43C)OC21O` (configuration not stated), the LC retention time is 4.29 min.

On to `COC(=O)C12CC3CC(C(C)O)C1N(CCc1c2[nH]c2ccc(OC)cc12)C3` (configuration not stated), for which the LC retention time is 4.61 min.

For the compound `CCC(C)C(N)C(=O)NC(C(=O)O)C(C)CC` (configuration not stated), the LC retention time is 3.05 min.

In the case of `CCCCCC(=O)OC1C(CO)OC(OC2(CO)OC(CO)C(OC(C)=O)C2O)C(OC(=O)CCCCC)C1OC(=O)CCCCC` (configuration not stated), the LC retention time is 9.97 min.

Turning to `COc1cc2oc(-c3ccc(O)cc3)cc(=O)c2c(O)c1C1OC(CO)C(O)C(O)C1O` (configuration not stated), the LC retention time is 4.08 min.

In the case of `CC=C1CC(C)C(C)(O)C(=O)OCC2=CCN3CCC(OC1=O)C23` (configuration not stated), the LC retention time is 3.8 min.

For the compound `CC(C)=CCc1c(O)ccc(-c2coc3cc(O)cc(O)c3c2=O)c1O`, the LC retention time is 7.57 min.

`O=C1c2ccc(O)cc2OCC1c1ccc(O)c(OC2OC(CO)C(O)C(O)C2O)c1` (configuration not stated): the LC retention time was 3.56 min.

For the compound `CC1C2CCC3C4CC=C5CC(N(C)C)CCC5(C)C4CCC32CN1C` (configuration not stated), the LC retention time was 3.35 min.

Take `O=c1cc(-c2ccc(OC3OC(CO)C(O)C(O)C3O)c(O)c2)oc2cc(O)cc(O)c12` (configuration not stated): the LC retention time was 4.45 min.

As for `O=c1c(-c2ccc(O)cc2)coc2cc(O)ccc12`, the LC retention time is 5.15 min.

Take `COC(=O)C1=COC(OC2OC(CO)C(O)C(O)C2O)C2C(CO)=CCC12` (configuration not stated): the LC retention time was 3.42 min.

Regarding `CC1OC(OC2C(CO)OC(OC3CCC4(C)C(=CC(O)C5C4CCC4(C)C5CC5OC6(CCC(C)(COC7OC(CO)C(O)C(O)C7O)O6)C(C)C54)C3)C(OC3OC(C)C(O)C(O)C3O)C2O)C(O)C(O)C1O` (configuration not stated), the LC retention time is 4.5 min.

Take `O=c1c(-c2ccc(O)c(O)c2)coc2cc(O)ccc12`: the LC retention time is 4.63 min.

With `CCC(C)C(NC(=O)Cc1c[nH]c2ccccc12)C(=O)O` (configuration not stated), the LC retention time was 6.14 min.

Turning to `O=C1CCCC2C3CCCN4CCCC(CN12)C34` (configuration not stated), the LC retention time was 2.26 min.

`OCC1OC(Oc2cc(O)cc3[o+]c(-c4ccc(O)c(O)c4)c(OC4OC(CO)C(O)C(O)C4OC4OCC(O)C(O)C4O)cc23)C(O)C(O)C1O` (configuration not stated): the LC retention time is 2.49 min.

Regarding `CC(C)=CCCC(C)(OC1OC(COC2OC(CO)C(O)C(O)C2O)C(O)C(O)C1O)C1CCC2(C)C1C(O)CC1C3(C)CCC(OC4OC(CO)C(O)C(O)C4OC4OC(CO)C(O)C(O)C4O)C(C)(C)C3CCC12C` (configuration not stated), the LC retention time is 5.88 min.

For `O=c1cc(-c2ccc(O)c(O)c2)oc2c(C3OCC(O)C(O)C3O)c(O)c(C3OC(CO)C(O)C(O)C3O)c(O)c12` (configuration not stated), the LC retention time was 3.35 min.
